pIC50, pKi: −log10 of the molar value.
Columns and labels:
B1 bradykinin receptor [1] = target: T1, B1 bradykinin receptor (Homo sapiens, UniProt P46663); test: Antagonist activity at human bradykinin B1 receptor expressed in CHO-D-/aequorin cells; type: functional, cell-based
T1 sequence (P46663 whole entry): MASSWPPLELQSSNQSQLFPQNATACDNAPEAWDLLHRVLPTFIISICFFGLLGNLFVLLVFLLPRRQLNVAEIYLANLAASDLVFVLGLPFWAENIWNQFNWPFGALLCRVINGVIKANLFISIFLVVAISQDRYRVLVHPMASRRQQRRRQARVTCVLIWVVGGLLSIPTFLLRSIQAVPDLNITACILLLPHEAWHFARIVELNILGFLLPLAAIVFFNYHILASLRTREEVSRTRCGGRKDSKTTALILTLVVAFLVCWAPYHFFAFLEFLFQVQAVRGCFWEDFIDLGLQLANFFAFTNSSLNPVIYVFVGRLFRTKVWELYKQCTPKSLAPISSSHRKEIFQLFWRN

[2] = Metabolic stability in human liver microsomes; type: ADME, Microsome; details: read-out: Stability
B1 bradykinin receptor [3] = target: T1, B1 bradykinin receptor; test: Displacement of [3H]DAK from human bradykinin B1 receptor expressed in CHO-D-/aequorin cells by rapid filtration technique; type: cell-based

O=C(C[C@@H]1C(=O)Nc2ccccc2N1S(=O)(=O)c1ccc(Cl)c(Cl)c1)NCCc1ccc(C2=NCCN2)cc1
pIC50 (B1 bradykinin receptor [1]): 9.74

CC(C)CNCc1ccc2c(c1)OCC[C@H]2NC(=O)C[C@@H]1C(=O)Nc2ccccc2N1S(=O)(=O)c1ccc(Cl)c(Cl)c1
microsomal CLint [2]: 264 µL/min/mg

Cc1ccc(S(=O)(=O)N2c3ccccc3NC(=O)[C@H]2CC(=O)N[C@@H]2CCOc3cc(CN4CCCCC4)ccc32)cc1
microsomal CLint [2]: 128 µL/min/mg

O=C(C[C@@H]1C(=O)Nc2ccccc2N1S(=O)(=O)c1ccc(Cl)c(Cl)c1)N[C@@H]1CCOc2cc(CN3CCCCC3)ccc21
microsomal CLint [2]: 389 µL/min/mg

CC(C)NCc1ccc2c(c1)OCC[C@H]2NC(=O)C[C@@H]1C(=O)Nc2ccccc2N1S(=O)(=O)c1ccc(Cl)c(Cl)c1
pIC50 (B1 bradykinin receptor [1]): 9.07
microsomal CLint [2]: 156 µL/min/mg
pKi (B1 bradykinin receptor [3]): 9.15

NCc1ccc2c(c1)OCC[C@H]2NC(=O)C[C@@H]1C(=O)Nc2ccccc2N1S(=O)(=O)c1ccc(Cl)c(Cl)c1
microsomal CLint [2]: 127 µL/min/mg

O=C(C[C@@H]1C(=O)Nc2ccccc2N1S(=O)(=O)c1ccc(Cl)c(Cl)c1)N[C@@H]1CCOc2cc(CO)ccc21
microsomal CLint [2]: 264 µL/min/mg

O=Cc1ccc2c(c1)OCC[C@H]2NC(=O)C[C@@H]1C(=O)Nc2ccccc2N1S(=O)(=O)c1ccc(Cl)c(Cl)c1
microsomal CLint [2]: 407 µL/min/mg

COc1ccccc1NC(=O)CC1C(=O)Nc2ccccc2N1S(=O)(=O)c1c(C)cc(C)cc1C (stereo unspecified)
pIC50 (B1 bradykinin receptor [1]): < 4.40
pKi (B1 bradykinin receptor [3]): 6.30

O=C(C[C@@H]1C(=O)Nc2ccccc2N1S(=O)(=O)c1ccccc1)N[C@@H]1CCOc2cc(CN3CCCCC3)ccc21
microsomal CLint [2]: 76 µL/min/mg

CNCc1ccc2c(c1)OCC[C@H]2NC(=O)C[C@@H]1C(=O)Nc2ccccc2N1S(=O)(=O)c1ccc(Cl)c(Cl)c1
microsomal CLint [2]: 107 µL/min/mg

CN(C)Cc1ccc2c(c1)OCC[C@H]2NC(=O)C[C@@H]1C(=O)Nc2ccccc2N1S(=O)(=O)c1ccc(Cl)c(Cl)c1
microsomal CLint [2]: 208 µL/min/mg

CC(C)(C)NCc1ccc2c(c1)OCC[C@H]2NC(=O)C[C@@H]1C(=O)Nc2ccccc2N1S(=O)(=O)c1ccc(Cl)c(Cl)c1
pIC50 (B1 bradykinin receptor [1]): 8.77
microsomal CLint [2]: 174 µL/min/mg
pKi (B1 bradykinin receptor [3]): 8.96

CC(C)(C)NCc1ccc2c(c1)OCC[C@H]2NC(=O)C[C@@H]1C(=O)Nc2ccccc2N1S(=O)(=O)c1ccccc1
pIC50 (B1 bradykinin receptor [1]): 9.43
microsomal CLint [2]: 26 µL/min/mg
pKi (B1 bradykinin receptor [3]): 8.74

From ChEMBL document CHEMBL1156605, “Discovery of dihydroquinoxalinone acetamides containing bicyclic amines as potent Bradykinin B1 receptor antagonists” (Bioorg Med Chem Lett, 2008)
